Measurements taken from doi:10.1101/2021.10.07.463234v2 (biorxiv, 2021).
Where a name gives a salt, the structure may show the parent alone.

Biological target: SARS-CoV-2 Mac1 (Severe acute respiratory syndrome coronavirus 2, UniProt P0DTD1)
Test: biochemical
Conditions: 100 µM; inhibitor

Going from Nc1ccn([C@@H]2O[C@H](CO)[C@@H](O)C2(F)F)c(=O)n1 [Gemcitabine HCl] to CN(CCOc1ccc(CC2SC(=O)NC2=O)cc1)c1ccccn1 (stereo not drawn) [Rosiglitazone], the “%inhibition” value rises from 0% to 18.44%.

First: Cc1ccc(C(=O)c2ccc(CC(=O)O)n2C)cc1 [Tolmetin Sodium]
Second: CNC(=O)c1cc(Oc2ccc(NC(=O)Nc3ccc(Cl)c(C(F)(F)F)c3)cc2)ccn1 [Sorafenib Tosylate]
The “%inhibition” value of the first is lower: 0.1982% for the first, 10.76% for the second.

Going from CC(=O)NS(=O)(=O)c1ccc(N)cc1 [Sulfacetamide] to NCc1ccc(S(N)(=O)=O)cc1 [Mafenide Acetate], the “%inhibition” value falls from 27.01% to 0%.

Compared with CN1[C@@H]2CC[C@H]1C[C@@H](OC(=O)c1c[nH]c3ccccc13)C2 [Tropisetron], CC1CNc2c(cccc2S(=O)(=O)N[C@@H](CCCNC(=N)N)C(=O)N2CC[C@@H](C)C[C@@H]2C(=O)O)C1 (stereo partly drawn) [Argatroban Monohydrate] is lower in “%inhibition” value: 6.575% for the first, 0% for the second.

Going from CCc1cc2c(cc1CC)CC(NC[C@H](O)c1ccc(O)c3[nH]c(=O)ccc13)C2 [Indacaterol Maleate] to O=C1CN(/N=C/c2ccc(-c3ccc([N+](=O)[O-])cc3)o2)C(=O)N1 [Dantrolene sodium], the “%inhibition” value rises from 2.994% to 11.92%.

Compared with CO/N=C(\C(=O)N[C@@H]1C(=O)N2C(C(=O)O)=C(CSc3nc(=O)c(O)nn3C)CS[C@H]12)c1csc(N)n1 [Ceftriaxone Sodium], C[C@H]1COc2c(N3CCN(C)CC3)c(F)cc3c(=O)c(C(=O)O)cn1c23 [Levofloxacin] is higher in “%inhibition” value: 17.28% for the first, 22.21% for the second.

Compared with CCCN[C@H]1CCc2nc(N)sc2C1 [Pramipexole dihydrochloride], CNCC[C@H](Oc1cccc2ccccc12)c1cccs1 [Duloxetine] is lower in “%inhibition” value: 10.17% for the first, 8.877% for the second.

Same assay, conditions: read-out: %inhibition

COc1cccc(CCc2ccccc2OCC(CN(C)C)OC(=O)CCC(=O)O)c1 (stereo not drawn) [Sarpogrelate hydrochloride] and COC(=O)C1=C(C)NC(C)=C(C(=O)OC(C)(C)CN(C)CCC(c2ccccc2)c2ccccc2)C1c1cccc([N+](=O)[O-])c1 (stereo not drawn) [Lercanidipine hydrochloride] are the same in inhibition at 100 µM: 0% for the first, 0% for the second.

Going from Clc1ccc2nsnc2c1NC1=NCCN1 [Tizanidine HCl] to Oc1c(Cl)cc(Cl)c2cccnc12 [Chloroxine], the inhibition at 100 µM rises from 0% to 10.2%.

CC(O)(CS(=O)(=O)c1ccc(F)cc1)C(=O)Nc1ccc(C#N)c(C(F)(F)F)c1 (stereo not drawn) [Bicalutamide] and Nc1ccc(S(=O)(=O)NC(=O)c2ccccc2)cc1 [Sulfabenzamide] are the same in inhibition at 100 µM: 0% for the first, 0% for the second.

First: COc1cc(Nc2c(C#N)cnc3cc(OCCCN4CCN(C)CC4)c(OC)cc23)c(Cl)cc1Cl [Bosutinib (SKI-606)]
Second: C=CC(=O)N1CCC(Oc2cc3c(Nc4ccc(Cl)c(Cl)c4F)ncnc3cc2OC)CC1 [Poziotinib (HM781-36B)]
The inhibition at 100 µM of the first is higher: 55.6% for the first, 0% for the second.

C[C@H]1O[C@@H](n2cc(F)c(=O)[nH]c2=O)[C@H](O)[C@@H]1O [Doxifluridine] and O=c1[nH]cnc2c1ncn2[C@@H]1O[C@H](CO)[C@@H](O)[C@H]1O [Inosine] are the same in inhibition at 100 µM: 0% for the first, 0% for the second.

Compared with Cc1cnc(Nc2ccc(OCCN3CCCC3)cc2)nc1Nc1cccc(S(=O)(=O)NC(C)(C)C)c1 [Fedratinib (SAR302503, TG101348)], Cc1ccccc1C(=O)Nc1ccc(C(=O)N2CCCC(O)c3cc(Cl)ccc32)c(C)c1 (stereo not drawn) [Tolvaptan] is lower in inhibition at 100 µM: 17.5% for the first, 10.6% for the second.

Going from CCCCCCOC(=O)NC(=N)c1ccc(NCc2nc3cc(C(=O)N(CCC(=O)OCC)c4ccccn4)ccc3n2C)cc1 [Dabigatran Etexilate] to Nc1nc(=O)c2nc(CNc3ccc(C(=O)N[C@@H](CCC(=O)O)C(=O)O)cc3)cnc2[nH]1 [Folic acid], the inhibition at 100 µM rises from 0% to 11.4%.

O=c1[nH]c2ccccc2n1CCN1CCN(c2cccc(C(F)(F)F)c2)CC1 [Flibanserin] and OCCN1CCN(CCCN2c3ccccc3Sc3ccc(Cl)cc32)CC1 [Perphenazine] are the same in inhibition at 100 µM: 0% for the first, 0% for the second.

C#CCN(C)Cc1ccccc1 [Pargyline hydrochloride] and O=C(OCc1ccccc1)c1ccccc1 [Benzyl benzoate] are the same in inhibition at 100 µM: 0% for the first, 0% for the second.

Compared with CNCCC=C1c2ccccc2CCc2ccccc21 [Nortriptyline hydrochloride], O=C1c2ccccc2C(=O)C1c1ccccc1 [Phenindione] is higher in inhibition at 100 µM: 0% for the first, 28.8% for the second.

First: C=CCNC(N)=S [Allylthiourea]
Second: NC(=O)CC[C@@H](N)C(=O)O [D-glutamine]
The inhibition at 100 µM of the first is higher: 7.98% for the first, 2.59% for the second.

Compared with CC(=O)Oc1c(C)c(C)c2c(c1C)CCC(C)(CCC[C@H](C)CCC[C@H](C)CCCC(C)C)O2 (stereo partly drawn) [Vitamin E Acetate], CCCCC(CC)COC(=O)CC(C(=O)OCC(CC)CCCC)S(=O)(=O)O (stereo not drawn) [Docusate Sodium] is higher in inhibition at 100 µM: 0% for the first, 14.3% for the second.

First: OCCOCCN1CCN(C(c2ccccc2)c2ccc(Cl)cc2)CC1 (stereo not drawn) [Hydroxyzine 2HCl]
Second: CN1CCOC(c2ccccc2)c2ccccc2C1 (stereo not drawn) [Nefopam HCl]
The inhibition at 100 µM of the first is higher: 11.4% for the first, 0% for the second.

CCCCNC(=O)NS(=O)(=O)c1ccc(C)cc1 [Tolbutamide] and NS(=O)(=O)c1ccc(C(=O)O)cc1 [Carzenide] are the same in inhibition at 100 µM: 0% for the first, 0% for the second.

Going from C[n+]1ccccc1C=NO [Pralidoxime Iodide] to CNCCc1ccccn1 [Betahistine mesylate], the inhibition at 100 µM falls from 22.4% to 0%.

Going from CC/C=C(\C(=O)N[C@@H]1C(=O)N2C(C(=O)OCOC(=O)C(C)(C)C)=C(COC(N)=O)CS[C@H]12)c1csc(N)n1 [Cefcapene Pivoxil Hydrochloride] to CC(=O)OCC1=C(C(=O)O)N2C(=O)[C@@H](NC(=O)CSc3ccncc3)[C@H]2SC1 [Cephapirin Sodium], the inhibition at 100 µM falls from 0.547% to 0%.

First: N[C@@H]1CCCCN(c2c(F)cc3c(=O)c(C(=O)O)cn(C4CC4)c3c2Cl)C1 [Besifloxacin HCl]
Second: Cn1c(=O)cc(N2CCC[C@@H](N)C2)n(Cc2ccccc2C#N)c1=O [Alogliptin]
The inhibition at 100 µM of the first is lower: 0% for the first, 12.8% for the second.

C[C@@H]1O[C@@H](O[C@H]2C[C@@H](O)[C@]3(CO)[C@H]4[C@H](O)C[C@]5(C)[C@@H](C6=CC(=O)OC6)CC[C@]5(O)[C@@H]4CC[C@]3(O)C2)[C@H](O)[C@H](O)[C@H]1O [Ouabain] and C[C@]12CCC(=O)C=C1C=C[C@@H]1[C@@H]2CC[C@@]2(C)[C@H]1CC[C@@]2(O)CCC(=O)O [Potassium Canrenoate] are the same in inhibition at 100 µM: 0% for the first, 0% for the second.

First: Cc1cccc(Nc2ccccc2C(=O)O)c1C [Mefenamic Acid]
Second: CS(=O)(=O)c1ccc(C2=C(c3ccccc3)C(=O)OC2)cc1 [Rofecoxib]
The inhibition at 100 µM of the first is higher: 21% for the first, 12.8% for the second.

Compared with OCCN(CCO)c1nc(N2CCCCC2)c2nc(N(CCO)CCO)nc(N3CCCCC3)c2n1 [Dipyridamole], CC(=O)O[C@H]1C[C@@H]2CC[C@@H]3[C@H](CC[C@@]4(C)[C@H]3C[C@H]([N+]3(C)CCCCC3)[C@@H]4OC(C)=O)[C@@]2(C)C[C@@H]1N1CCCCC1 [Vecuronium Bromide] is lower in inhibition at 100 µM: 26.7% for the first, 0% for the second.

Going from CC(C)(Oc1ccc(C2CC2(Cl)Cl)cc1)C(=O)O (stereo not drawn) [Ciprofibrate] to O=C(O)c1cccnc1 [Nicotinic Acid], the inhibition at 100 µM rises from 20.7% to 28.8%.

N=C(N)NC(=O)Cc1c(Cl)cccc1Cl [Guanfacine Hydrochloride] and CCCCN1CCCCC1C(=O)Nc1c(C)cccc1C (stereo not drawn) [Bupivacaine HCl] are the same in inhibition at 100 µM: 0% for the first, 0% for the second.

Going from O=C(O)CCCC[C@@H]1CCSS1 (racemic) [Thioctic acid] to CC(=O)NC1CCSC1=O (stereo not drawn) [Citiolone], the inhibition at 100 µM falls from 22.2% to 0%.

First: CC(=O)N1CCN(c2ccc(OC[C@@H]3CO[C@@](Cn4ccnc4)(c4ccc(Cl)cc4Cl)O3)cc2)CC1 (racemic) [Ketoconazole]
Second: O=C(NC(Cc1cc(=O)[nH]c2ccccc12)C(=O)O)c1ccc(Cl)cc1 (stereo not drawn) [Rebamipide]
The inhibition at 100 µM of the first is higher: 19.1% for the first, 0% for the second.

Going from COc1ccc(-c2nc3cc(C4=NNC(=O)CC4C)ccc3[nH]2)cc1 (stereo not drawn) [Pimobendan] to COC(=O)N[C@H](C(=O)N1CC2(CC2)C[C@H]1c1nc(-c2ccc3c(c2)C(F)(F)c2cc(-c4ccc5[nH]c([C@@H]6[C@H]7CC[C@H](C7)N6C(=O)[C@@H](NC(=O)OC)C(C)C)nc5c4)ccc2-3)c[nH]1)C(C)C [Ledipasvir (GS5885)], the inhibition at 100 µM rises from 13% to 23.8%.

First: CCOC(=O)C1=C[C@]2(CC)CCCN3CCc4c(n1c1ccccc41)[C@@H]32 [Vinpocetine]
Second: CCCCC1C(=O)N(c2ccccc2)N(c2ccccc2)C1=O [Phenylbutazone]
The inhibition at 100 µM of the first is higher: 1.15% for the first, 0% for the second.

Going from CC(C[N+](C)(C)C)OC(N)=O (stereo not drawn) [Bethanechol chloride] to CC(C)OC(=O)C(C(=O)OC(C)C)=C1SC=CS1 [Malotilate], the inhibition at 100 µM rises from 0% to 0.00863%.

Going from C[C@]1(c2nc3c(C(N)=O)cccc3[nH]2)CCCN1 [Veliparib (ABT-888)] to CN(C)[C@@H]1C(=O)C(C(N)=O)=C(O)[C@@]2(O)C(=O)C3=C(O)c4c(O)cccc4[C@@](C)(O)C3[C@H](O)C12 (stereo partly drawn) [Oxytetracycline (Terramycin)], the inhibition at 100 µM falls from 54.3% to 15.9%.

First: CCCCCCCCCCCCCCCC(=O)O[C@@H]1[C@@H](O)[C@@H](O)[C@@H]([C@H](NC(=O)[C@@H]2C[C@@H](CCC)CN2C)[C@H](C)Cl)O[C@@H]1SC [Clindamycin palmitate HCl]
Second: Cc1ncc([N+](=O)[O-])n1CC(O)CCl (stereo not drawn) [Ornidazole]
The inhibition at 100 µM of the first is higher: 22.9% for the first, 17.6% for the second.

CCC(Cc1c(I)cc(I)c(N)c1I)C(=O)O (stereo not drawn) [Iopanoic acid] and O=C(Cn1ccnc1[N+](=O)[O-])NCc1ccccc1 [Benznidazole] are the same in inhibition at 100 µM: 0% for the first, 0% for the second.

Compared with NC(CO)(CO)CO [Trometamol], CCC1(C)CC(=O)NC1=O (stereo not drawn) [Ethosuximide] is lower in inhibition at 100 µM: 3.46% for the first, 0% for the second.

Cc1cccn2c(=O)c(-c3nnn[nH]3)cnc12 [Pemirolast potassium] and O=C1OCCN1/N=C/c1ccc([N+](=O)[O-])o1 [Furazolidone] are the same in inhibition at 100 µM: 0% for the first, 0% for the second.
